Assay results taken from patent US20030162763A1, “Novel cephalosporin compounds and process for preparing the same” (priority 2000, published 2003).
Converted amounts (≈) assume the structure as drawn. Like-named read-outs stand apart in the source and are kept apart here.

How the values were obtained:
Assay in all cases: Minimum Inhibitory Concentration (MIC), agar dilution
[1] = test system: E. faecalis L239; type: cell-based; conditions: Enterococcus faecalis, read-out: Sensitivity test result (MIC), E. faecalis L239
Description: (§1) The effectiveness of the compound according to the present invention was determined by obtaining Minimum Inhibitory Concentration (MIC) of the compounds prepared by the above examples (I-1 to I-6) and vancomycin, which is the known compound having a potent activity against gram-positive strains, as the control drug against the standard strains. Specifically, Minimum Inhibitory Concentration was obtained by diluting the test material with a double dilution method, dispersing them in Mueller-Hinton agar medium, inoculating each of the test strain having 10^7 cfu (colony forming unit) per ml in an amount of 2 μl to the medium and then incubating them at 37° C. for 20 hours. From the result of Minimum Inhibitory Concentration test, it can be seen that the compound according to the present invention has a good activity against major pathogenic microorganisms, which cause hospital infection, including MRSA strains.

[2] = test system: S. epidermidis R005; type: cell-based; conditions: for MIC: Staphylococcus epidermidis, read-out: Sensitivity test result (MIC), S. epidermidis R005
Description: as §1

[3] = test system: Staphylococcus aureus giorgio; type: cell-based; conditions: for MIC: Staphylococcus aureus, read-out: Sensitivity test result (MIC), Staphylococcus aureus giorgio
Description: as §1

[4] = test system: S. aureus 77; type: cell-based, Staphylococcus aureus; conditions: for MIC: read-out: Sensitivity test result (MIC), S. aureus 77
Description: as §1

[5] = test system: S. aureus 241; type: cell-based, Staphylococcus aureus; conditions: read-out: Sensitivity test result (MIC), S. aureus 241
Description: as §1

[6] = test system: E. faecalis EFS004; type: cell-based; conditions: Enterococcus faecalis, read-out: Sensitivity test result (MIC), E. faecalis EFS004
Description: as §1

[7] = test system: Staphylococcus aureus K311; type: cell-based; conditions: read-out: Sensitivity test result (MIC), Staphylococcus aureus K311
Description: as §1

[8] = L239, Table 1, Mueller-Hinton agar, 37° C., 20 hours
[9] = R005, Table 1, Mueller-Hinton agar, 37° C., 20 hours
[10] = Table 1, Mueller-Hinton agar, 37° C., 20 hours
[11] = Staphylococcus aureus, 77, Table 1, Mueller-Hinton agar, 37° C., 20 hours
[12] = Staphylococcus aureus, 241, Table 1, Mueller-Hinton agar, 37° C., 20 hours
[13] = EFS004, Table 2, Mueller-Hinton agar, 37° C., 20 hours
[14] = K311, Table 2, Mueller-Hinton agar, 37° C., 20 hours
[15] = R005, Table 2, Mueller-Hinton agar, 37° C., 20 hours
[16] = Table 2, Mueller-Hinton agar, 37° C., 20 hours
[17] = Staphylococcus aureus, 77, Table 2, Mueller-Hinton agar, 37° C., 20 hours

| Compound | MIC [1, 8] [µg/mL] | MIC [2, 9] [µg/mL] | MIC [3, 10] [µg/mL] | MIC [4, 11] [µg/mL] | MIC [5, 12] [µg/mL] | other results |
| --- | --- | --- | --- | --- | --- | --- |
| Nc1cc(SC2=C(C(=O)O)N3C(=O)[C@@H](NC(=O)CSc4cc(Cl)ccc4Cl)[C@H]3SC2)nc(N)n1 [Compound I-1, (6R,7R)-3-[(2,6-diamino-4-pyrimidinyl)sulfanyl]-7-({2-[(2,5-dichlorophenyl)-sulfanyl]acetyl}amino)-8-oxo-5-thia-1-azabicyclo[4.2.0]oct-2-ene-2-carboxylic acid] | 2 (≈ 3.57 µM) | 0.25 (≈ 0.447 µM) | < 0.008 | 0.25 (≈ 0.447 µM) | 2 (≈ 3.57 µM) |  |
| Nc1nc(O)cc(SC2=C(C(=O)O)N3C(=O)[C@@H](NC(=O)CSc4cc(Cl)ccc4Cl)[C@H]3SC2)n1 [Compound I-2, (6R,7R)-3-[(2-amino-6-hydroxy-4-pyrimidinyl)sulfanyl]-7-({2-[(2,5-dichloro-phenyl)sulfanyl]acetyl}amino)-8-oxo-5-thia-1-azabicyclo[4.2.0]oct-2-ene-2-carboxylic acid] | 2 (≈ 3.57 µM) | 0.5 (≈ 0.892 µM) | 0.031 (≈ 0.0553 µM) | 0.5 (≈ 0.892 µM) | 4 (≈ 7.14 µM) |  |
| Nc1cc(SC2=C(C(=O)O)N3C(=O)[C@@H](NC(=O)CSc4c(Cl)cccc4Cl)[C@H]3SC2)nc(O)n1 [Compound I-3, (6R,7R)-3-[(6-amino-2-hydroxy-4-pyrimidinyl)sulfanyl]-7-({2-[(2,6-dichloro-phenyl)sulfanyl]acetyl}amino)-8-oxo-5-thia-1-azabicyclo[4.2.0]oct-2-ene-2-carboxylic acid] | 2 (≈ 3.57 µM) | 0.5 (≈ 0.892 µM) | 0.016 (≈ 0.0285 µM) | 1 (≈ 1.78 µM) | 4 (≈ 7.14 µM) |  |
| Nc1ccnc(SC2=C(C(=O)O)N3C(=O)[C@@H](NC(=O)Cc4ccccc4)[C@H]3SC2)n1 [Compound I-4, (6R,7R)-3-[(4-amino-2-pyrimidinyl)sulfanyl]-8-oxo-7-[(phenylacetyl)amino]-5-thia-1-azabicyclo[4.2.0]oct-2-ene-2-carboxylic acid] | > 64 | 32 (≈ 72.2 µM) | 4 (≈ 9.02 µM) | 32 (≈ 72.2 µM) | > 64 |  |
| Nc1cc(SC2=C(C(=O)O)N3C(=O)[C@@H](NC(=O)CSc4cc(Cl)nc(Cl)c4)[C@H]3SC2)nc(N)n1 [Compound I-5, (6R,7R)-3-[(2,6-diamino-4-pyrimidinyl)sulfanyl]-7-({2-[(2,6-dichloro-4-pyridinyl)sulfanyl]acetyl}amino)-8-oxo-5-thia-1-azabicyclo[4.2.0]oct-2-ene-2-carboxylic acid] |  |  |  |  |  | MIC [6, 13]: 4 µg/mL (≈ 7.14 µM); MIC [7, 14]: 1 µg/mL (≈ 1.78 µM); MIC [2, 15]: 1 µg/mL (≈ 1.78 µM); MIC [3, 16]: 0.063 µg/mL (≈ 0.112 µM); MIC [4, 17]: 1 µg/mL (≈ 1.78 µM) |
| Nc1nc(O)cc(SC2=C(C(=O)O)N3C(=O)[C@@H](NC(=O)CSc4cc(Cl)nc(Cl)c4)[C@H]3SC2)n1 [Compound I-6, (6R,7R)-3-[(2-amino-6-hydroxy-4-pyrimidinyl)sulfanyl]-7-({2-[(2,6-dichloro-4-pyridinyl)sulfanyl]acetyl}amino)-8-oxo-5-thia-1-azabicyclo[4.2.0]oct-2-ene-2-carboxylic acid] |  |  |  |  |  | MIC [6, 13]: 2 µg/mL (≈ 3.56 µM); MIC [7, 14]: 1 µg/mL (≈ 1.78 µM); MIC [2, 15]: 0.5 µg/mL (≈ 0.891 µM); MIC [3, 16]: 0.063 µg/mL (≈ 0.112 µM); MIC [4, 17]: 2 µg/mL (≈ 3.56 µM) |
| CN[C@H](CC(C)C)C(=O)N[C@H]1C(=O)N[C@@H](CC(N)=O)C(=O)N[C@H]2C(=O)N[C@H]3C(=O)N[C@H](C(=O)N[C@H](C(=O)O)c4cc(O)cc(O)c4-c4cc3ccc4O)[C@H](O)c3ccc(c(Cl)c3)Oc3cc2cc(c3O[C@@H]2O[C@H](CO)[C@@H](O)[C@H](O)[C@H]2O[C@H]2C[C@](C)(N)[C@H](O)[C@H](C)O2)Oc2ccc(cc2Cl)[C@H]1O [Vancomycin, vancomycin, reference compound] |  |  |  |  |  | MIC ([6]; EFS004, 20 h): 1 µg/mL (≈ 0.69 µM); MIC ([1]; L239, 20 h): 2 µg/mL (≈ 1.38 µM); MIC ([7]; K311, 20 h): 2 µg/mL (≈ 1.38 µM); MIC ([2]; R005, 20 h): 1 µg/mL (≈ 0.69 µM); Sensitivity test result (MIC), S. epidermidis R005 [2, 16]: 1 µg/mL; MIC ([3]; 20 h): 1 µg/mL (≈ 0.69 µM); Sensitivity test result (MIC), Staphylococcus aureus giorgio [3, 16]: 1 µg/mL; MIC ([4]; Staphylococcus aureus, 77, 20 h): 1 µg/mL (≈ 0.69 µM); Sensitivity test result (MIC), S. aureus 77 [4, 16]: 1 µg/mL; MIC ([5]; Staphylococcus aureus, 241, 20 h): 2 µg/mL (≈ 1.38 µM) |
